Patent US9993570B2, “Radiolabeled tracers for poly (ADP-ribose) polymerase-1 (PARP-1), methods and uses therefor” (Washington University, priority 2014, dated 2018)
Entries after “also recorded” stand apart in the source; their conditions may differ.

What was measured:
[1] = test system: MDA-MB-436 tumors; test: microPET imaging with [18F]12, MDA-MB-436 xenograft tumors; type: in vivo, mice; details: baseline, 0-60 min post-tracer injection
Description: This example illustrates the visualization of tumor tissue in microPET in mice. MDA-MB-436 human breast cancer xenograft tumors in immune-deficient mice were visualized by PET using [^18F]12.
MDA-MB-436 and MDA-MB-231 human breast cancer cells were maintained in cell culture under standard conditions with 5% CO2 atmosphere using Eagle's minimum essential medium (with Earle's balanced salt solution and 2 mM L-glutamine) supplemented with 2 mM E-glutamine, 1 mM sodium pyruvate, 0.1 mM non-essential amino acids 2% vitamins for MEM, and 5% fetal bovine serum. Cells in exponential growth were trypsinized and harvested for tumor implantation. After counting, cells were re-suspended in ice-cold 1:1 Matrigel and PBS to give the desired concentration and held on ice.
Mature female athymic nu/nu mice from Charles River Laboratories are allowed to acclimate in an AALAC accredited housing facility for at least 1 week prior to tumor implantation for these serial imaging studies. Female nu/nu mice were implanted in the mammary fat pads (near the auxiliary lymph nodes) with ˜8×10^6 MDA-MB-436 breast cancer cells in ˜100 μL of 1:1 Matrigel:PBS. Imaging studies were conducted 2-3 weeks post implantation.
Tumor-bearing mice were placed in an induction chamber containing ˜2% isoflurane/oxygen and then secured to a custom double bed for placement of tail vein catheters; anesthesia was maintained via nose-cone at ˜1% isoflurane/oxygen for the dynamic imaging procedure. The mice were injected with 150-200 μCi of [^18F]12 and scanned for 0-60 min using Focus 220 and Inveon PET/CT scanners. The standard uptake values (SUVs) were generated from manually drawn regions of interests for tumors and surrounding ‘background’ tissue. Visualization of specific uptake was determined by comparison of baseline scans with images acquired by tracer injection 20 minutes after pre-treatment with the blocking agents olaparib (50 mg/kg, IP) or 12 (1 mg/kg, IP).

[2] = Organ biodistribution of [18F]WC-4-138 in athymic nude mice; type: in vivo
Description: This example illustrates biodistribution of Compound 12 ([^18F]WC-4-138) in mice. Eight week old, female, athymic nude mice (Harlan) were injected via tail vein with [^18F]WC4-138. Mice were sacrificed by cervical dislocation 5 or 30 minutes after IV tracer injection of 30 μCi, 1 or 2 hours after injection of 45 μCi, or 4 hours after injection of 60 μCi of [^18F]WC-4-138. The acetonitrile-soluble fractions of plasma or liver and the control parent compound were separated via reverse-phase high performance liquid chromatography (HPLC) and the radioactivity of each fraction was quantified. The percent parent compound of each sample was calculated as the portion of radioactivity associated with the HPLC fractions that contained the parent compound. Data are presented as mean±SD, n=3.
Four mice were sacrificed at each timepoint, with the exception of the 2 hour timepoint (n=3). Blood, heart, lung, muscle, liver, spleen, fat, adrenal glands, kidney, uterus, ovaries, bone, bone marrow, pancreas, stomach, small intestine, and large intestine were collected from each animal. All organs were blotted to remove excess blood, weighed, and counted in a Beckmann 6000 gamma counter. The percent injected dose per gram (% ID/g) of tissue was determined for each organ.

## O=C1NCCn2c(-c3ccc(OCC[18F])cc3)nc3cccc1c32 [[^18F]12]
[1]
  [18F]12 uptake in MDA-MB-436 tumors (microPET): increased uptake that was distinguishable from background; also recorded: progressively accumulated in the tumor; also recorded: accumulation of the radioactivity in these tumors
[2]; 5 min after IV injection
  % ID/g, Adrenals: 11.80 +/− 0.46 % ID/g
  % ID/g, Blood: 1.60 +/− 0.21 % ID/g
  % ID/g, Bone: 3.40 +/− 0.74 % ID/g
  % ID/g, Brain: 0.55 +/− 0.16 % ID/g
  % ID/g, Fat: 1.16 +/− 0.49 % ID/g
  % ID/g, Heart: 6.57 +/− 0.45 % ID/g
  % ID/g, Kidney: 35.63 +/− 3.33 % ID/g
  % ID/g, Liver: 12.50 +/− 1.08 % ID/g
  % ID/g, Lower Large Intestine: 4.17 +/− 0.42 % ID/g
  % ID/g, Lung: 11.89 +/− 0.89 % ID/g
  % ID/g, Marrow: 0.06 +/− 0.02 % ID/g
  % ID/g, Muscle: 2.05 +/− 0.48 % ID/g
  % ID/g, Ovaries: 4.71 +/− 1.21 % ID/g
  % ID/g, Pancress: 9.67 +/− 1.98 % ID/g
  % ID/g, Small Intestine: 12.64 +/− 1.45 % ID/g
  % ID/g, Spleen: 12.47 +/− 6.69 % ID/g
  % ID/g, Stomach: 3.17 +/− 0.66 % ID/g
  % ID/g, Thyroid: 4.18 +/− 1.18 % ID/g
  % ID/g, Upper Large Intestine: 7.84 +/− 1.02 % ID/g
  % ID/g, Uterus: 3.44 +/− 2.01 % ID/g
[2]; 30 min after IV injection
  % ID/g, Adrenals: 5.18 +/− 0.94 % ID/g
  % ID/g, Blood: 2.07 +/− 0.16 % ID/g
  % ID/g, Bone: 4.49 +/− 0.34 % ID/g
  % ID/g, Brain: 1.03 +/− 0.11 % ID/g
  % ID/g, Fat: 1.22 +/− 0.25 % ID/g
  % ID/g, Heart: 3.44 +/− 0.30 % ID/g
  % ID/g, Kidney: 21.14 +/− 2.21 % ID/g
  % ID/g, Liver: 8.24 +/− 0.62 % ID/g
  % ID/g, Lower Large Intestine: 7.43 +/− 0.59 % ID/g
  % ID/g, Lung: 5.33 +/− 0.48 % ID/g
  % ID/g, Marrow: 0.11 +/− 0.02 % ID/g
  % ID/g, Muscle: 2.39 +/− 0.15 % ID/g
  % ID/g, Ovaries: 5.31 +/− 0.82 % ID/g
  % ID/g, Pancress: 10.27 +/− 1.28 % ID/g
  % ID/g, Small Intestine: 13.00 +/− 0.75 % ID/g
  % ID/g, Spleen: 26.85 +/− 3.52 % ID/g
  % ID/g, Stomach: 3.77 +/− 0.73 % ID/g
  % ID/g, Thyroid: 4.03 +/− 0.28 % ID/g
  % ID/g, Upper Large Intestine: 14.07 +/− 1.72 % ID/g
  % ID/g, Uterus: 4.53 +/− 1.45 % ID/g
[2]; 60 min after IV injection
  % ID/g, Adrenals: 3.51 +/− 1.08 % ID/g
  % ID/g, Blood: 2.30 +/− 0.28 % ID/g
  % ID/g, Bone: 5.21 +/− 0.40 % ID/g
  % ID/g, Brain: 1.24 +/− 0.13 % ID/g
  % ID/g, Fat: 1.16 +/− 0.45 % ID/g
  % ID/g, Heart: 2.88 +/− 0.23 % ID/g
  % ID/g, Kidney: 14.02 +/− 1.84 % ID/g
  % ID/g, Liver: 6.50 +/− 0.52 % ID/g
  % ID/g, Lower Large Intestine: 10.53 +/− 1.45 % ID/g
  % ID/g, Lung: 3.99 +/− 0.29 % ID/g
  % ID/g, Marrow: 0.13 +/− 0.04 % ID/g
  % ID/g, Muscle: 2.21 +/− 0.31 % ID/g
  % ID/g, Ovaries: 4.75 +/− 0.36 % ID/g
  % ID/g, Pancress: 9.18 +/− 1.37 % ID/g
  % ID/g, Small Intestine: 8.85 +/− 1.49 % ID/g
  % ID/g, Spleen: 25.75 +/− 1.95 % ID/g
  % ID/g, Stomach: 3.62 +/− 0.37 % ID/g
  % ID/g, Thyroid: 3.32 +/− 0.19 % ID/g
  % ID/g, Upper Large Intestine: 15.62 +/− 2.31 % ID/g
  % ID/g, Uterus: 5.51 +/− 0.79 % ID/g
[2]; 120 min after IV injection
  % ID/g, Adrenals: 2.69 +/− 0.44 % ID/g
  % ID/g, Blood: 2.54 +/− 0.13 % ID/g
  % ID/g, Bone: 6.56 +/− 0.80 % ID/g
  % ID/g, Brain: 1.58 +/− 0.19 % ID/g
  % ID/g, Fat: 1.07 +/− 0.11 % ID/g
  % ID/g, Heart: 2.68 +/− 0.09 % ID/g
  % ID/g, Kidney: 8.77 +/− 0.72 % ID/g
  % ID/g, Liver: 4.58 +/− 0.29 % ID/g
  % ID/g, Lower Large Intestine: 13.35 +/− 0.87 % ID/g
  % ID/g, Lung: 3.17 +/− 0.28 % ID/g
  % ID/g, Marrow: 0.07 +/− 0.01 % ID/g
  % ID/g, Muscle: 2.07 +/− 0.11 % ID/g
  % ID/g, Ovaries: 4.25 +/− 0.52 % ID/g
  % ID/g, Pancress: 5.37 +/− 0.64 % ID/g
  % ID/g, Small Intestine: 6.62 +/− 0.75 % ID/g
  % ID/g, Spleen: 17.19 +/− 1.08 % ID/g
  % ID/g, Stomach: 2.56 +/− 0.27 % ID/g
  % ID/g, Thyroid: 3.46 +/− 0.10 % ID/g
  % ID/g, Upper Large Intestine: 10.28 +/− 0.65 % ID/g
  % ID/g, Uterus: 4.13 +/− 0.20 % ID/g
[2]; 240 min after IV injection
  % ID/g, Adrenals: 1.74 +/− 0.34 % ID/g
  % ID/g, Blood: 1.61 +/− 0.05 % ID/g
  % ID/g, Bone: 9.29 +/− 1.17 % ID/g
  % ID/g, Brain: 1.17 +/− 0.05 % ID/g
  % ID/g, Fat: 0.62 +/− 0.44 % ID/g
  % ID/g, Heart: 1.67 +/− 0.06 % ID/g
  % ID/g, Kidney: 3.67 +/− 0.54 % ID/g
  % ID/g, Liver: 2.43 +/− 0.25 % ID/g
  % ID/g, Lower Large Intestine: 7.17 +/− 0.50 % ID/g
  % ID/g, Lung: 2.03 +/− 0.43 % ID/g
  % ID/g, Marrow: 0.04 +/− 0.01 % ID/g
  % ID/g, Muscle: 1.35 +/− 0.09 % ID/g
  % ID/g, Ovaries: 2.00 +/− 0.41 % ID/g
  % ID/g, Pancress: 2.75 +/− 0.44 % ID/g
  % ID/g, Small Intestine: 3.04 +/− 0.25 % ID/g
  % ID/g, Spleen: 9.80 +/− 1.01 % ID/g
  % ID/g, Stomach: 1.20 +/− 0.08 % ID/g
  % ID/g, Thyroid: 3.23 +/− 0.49 % ID/g
  % ID/g, Upper Large Intestine: 4.33 +/− 0.57 % ID/g
  % ID/g, Uterus: 2.05 +/− 0.31 % ID/g
